Data as given in the NIST ThermoML archive (doi:10.1016/j.jct.2011.01.016).

Assays:
[1] = 101.33 kPa, Liquid; for viscosity: Concentric cylinders viscometry; for mass density: Vibrating tube method
[2] = xn = mol fraction of the nth substance listed; conditions: 100 kPa, Liquid; for viscosity: Concentric cylinders viscometry; for mass density: Vibrating tube method

CCCCCCCCCC(=O)[O-].CCCCCCCCCCCCCC[P+](CCCCCC)(CCCCCC)CCCCCC [trihexyltetradecylphosphonium decanoate]
[1]
Conditions | mass density [kg/m3] | viscosity [mPa·s]
278.15 K | 893.2 | 1915.7
283.15 K | 890 | 1292.9
288.15 K | 886.9 | 902.16
293.15 K | 883.7 | 644.41
298.15 K | 880.6 | 471.51
303.15 K | 877.5 | 352.09
308.15 K | 874.4 | 267.73
313.15 K | 871.3 | 207.27
318.15 K | 868.3 | 163
323.15 K | 865.3 | 130.01
328.15 K | 862.2 | 104.89
333.15 K | 859.2 | 85.75
338.15 K | 856.2 | 70.93
343.15 K | 853.2 | 59.27
348.15 K | 850.2 | 49.99
353.15 K | 847.3 | 42.54
358.15 K | 844.3 | 36.46
363.15 K | 841.3 | 31.47

CCCCCCCCCCCCCC[P+](CCCCCC)(CCCCCC)CCCCCC.O=S(=O)([N-]S(=O)(=O)C(F)(F)F)C(F)(F)F + O
[2], x2 = 0.088
Conditions | mass density [kg/m3] | viscosity [mPa·s]
298.15 K | 1066.1 | 300.01
303.15 K | 1062.4 | 224.6
308.15 K | 1058.7 | 170.8
313.15 K | 1055 | 132.06
318.15 K | 1051.4 | 103.5
323.15 K | 1047.7 | 82.08
328.15 K | 1044 | 65.75
333.15 K | 1040.4 | 53.41
338.15 K | 1036.7 | 44.23
343.15 K | 1033.1 | 37.14
348.15 K | 1029.6 | 31.46
353.15 K | 1026 | 26.9
358.15 K | 1022.4 | 23.17
363.15 K | 1018.8 | 20.09

CCCCCCCCCCCCCC[P+](CCCCCC)(CCCCCC)CCCCCC.[Br-] [tetradecyltrihexylphosphonium bromide]
[1]
Conditions | mass density [kg/m3] | viscosity [mPa·s]
278.15 K | 967.5 | 16955
283.15 K | 964.4 | 10457
288.15 K | 961.3 | 6688.3
293.15 K | 958.2 | 4421.3
298.15 K | 955.2 | 2988.4
303.15 K | 952.1 | 2065.2
308.15 K | 949 | 1456.3
313.15 K | 946 | 1046.7
318.15 K | 942.9 | 764.04
323.15 K | 939.8 | 568.06
328.15 K | 936.7 | 428.98
333.15 K | 933.7 | 328.56
338.15 K | 930.7 | 255.03
343.15 K | 927.6 | 200.46
348.15 K | 924.6 | 159.44
353.15 K | 921.7 | 128.21
358.15 K | 918.7 | 104.15
363.15 K | 915.7 | 85.44

CCCCCCCCCCCCCC[P+](CCCCCC)(CCCCCC)CCCCCC.[Cl-] [trihexyl(tetradecyl)phosphonium chloride] + O
[2], x2 = 0.818
Conditions | mass density [kg/m3] | viscosity [mPa·s]
298.15 K | 901.6 | 134.72
303.15 K | 898.3 | 103.12
308.15 K | 895 | 80.2
313.15 K | 891.7 | 63.3
318.15 K | 888.4 | 50.65
323.15 K | 885.1 | 41.05
328.15 K | 881.8 | 33.64
333.15 K | 878.5 | 27.88
338.15 K | 875.2 | 23.33
343.15 K | 871.9 | 19.71
348.15 K | 868.6 | 16.79
353.15 K | 865.3 | 14.4
358.15 K | 862 | 12.44
363.15 K | 858.6 | 10.81

CCCCCCCCCCCCCC[P+](CCCCCC)(CCCCCC)CCCCCC.N#C[N-]C#N [tetradecyl(trihexyl)phosphonium dicyanamide]
[1]
Conditions | mass density [kg/m3] | viscosity [mPa·s]
278.15 K | 910.8 | 1646.8
283.15 K | 907.8 | 1144.9
288.15 K | 904.9 | 816.36
293.15 K | 901.9 | 592.93
298.15 K | 899 | 438.57
303.15 K | 896.1 | 329.68
308.15 K | 893.3 | 251.71
313.15 K | 890.4 | 195
318.15 K | 887.6 | 153.15
323.15 K | 884.8 | 121.78
328.15 K | 882 | 97.96
333.15 K | 879.2 | 79.73
338.15 K | 876.4 | 65.56
343.15 K | 873.7 | 54.43
348.15 K | 870.9 | 45.6
353.15 K | 868.1 | 38.53
358.15 K | 865.3 | 32.85
363.15 K | 862.6 | 28.2

CCCCCCCCCCCCCC[P+](CCCCCC)(CCCCCC)CCCCCC.[Cl-] [trihexyl(tetradecyl)phosphonium chloride]
[1]
Conditions | mass density [kg/m3] | viscosity [mPa·s]
278.15 K | 901.6 | 15339
283.15 K | 898.6 | 9447.7
288.15 K | 895.7 | 6088.5
293.15 K | 892.8 | 4030.4
298.15 K | 889.9 | 2729.1
303.15 K | 887 | 1890.3
308.15 K | 884 | 1336.4
313.15 K | 881.1 | 962.5
318.15 K | 878.2 | 705.75
323.15 K | 875.3 | 525.98
328.15 K | 872.3 | 398.19
333.15 K | 869.5 | 305.73
338.15 K | 866.6 | 237.78
343.15 K | 863.7 | 187.39
348.15 K | 860.8 | 149.21
353.15 K | 858 | 120.11
358.15 K | 855.1 | 97.66
363.15 K | 852.3 | 80.17

CCCCCCCCCCCCCC[P+](CCCCCC)(CCCCCC)CCCCCC.O=S(=O)([N-]S(=O)(=O)C(F)(F)F)C(F)(F)F
[1]
Conditions | mass density [kg/m3] | viscosity [mPa·s]
278.15 K | 1081.1 | 1246.2
283.15 K | 1077.4 | 871.17
288.15 K | 1073.6 | 622.45
293.15 K | 1069.8 | 453.64
298.15 K | 1066.1 | 336.74
303.15 K | 1062.4 | 254.24
308.15 K | 1058.8 | 195.04
313.15 K | 1055.2 | 151.85
318.15 K | 1051.6 | 119.85
323.15 K | 1048 | 95.81
328.15 K | 1044.4 | 77.55
333.15 K | 1040.9 | 63.47
338.15 K | 1037.3 | 52.49
343.15 K | 1033.7 | 43.84
348.15 K | 1030.2 | 36.95
353.15 K | 1026.6 | 31.41
358.15 K | 1023.1 | 26.91

CCCCCCCCCCCCCC[P+](CCCCCC)(CCCCCC)CCCCCC.[Br-] [tetradecyltrihexylphosphonium bromide] + O
[2], x2 = 0.68
Conditions | mass density [kg/m3] | viscosity [mPa·s]
298.15 K | 957 | 238.84
303.15 K | 953.6 | 180.54
308.15 K | 950.3 | 138.77
313.15 K | 946.9 | 108.27
318.15 K | 943.6 | 85.71
323.15 K | 940.2 | 68.71
328.15 K | 936.9 | 55.74
333.15 K | 933.5 | 45.71
338.15 K | 930.2 | 37.91
343.15 K | 926.8 | 31.74
348.15 K | 923.5 | 26.82
353.15 K | 920.1 | 22.85
358.15 K | 916.7 | 19.62
363.15 K | 913.4 | 16.94

CCCCCCCCCCCCCC[P+](CCCCCC)(CCCCCC)CCCCCC.CS(=O)(=O)[O-] [trihexyltetradecylphosphonium methanesulfonate] + O
[2], x2 = 0.825
Conditions | mass density [kg/m3] | viscosity [mPa·s]
298.15 K | 935.1 | 126.55
303.15 K | 931.8 | 97.43
308.15 K | 928.4 | 76.18
313.15 K | 925.1 | 60.41
318.15 K | 921.7 | 48.54
323.15 K | 918.4 | 39.48
328.15 K | 915 | 32.49
333.15 K | 911.6 | 27.02
338.15 K | 908.2 | 22.69
343.15 K | 904.8 | 19.23
348.15 K | 901.4 | 16.45
353.15 K | 898 | 14.16
358.15 K | 894.6 | 12.28
363.15 K | 891.2 | 10.71

CCCCCCCCCC(=O)[O-].CCCCCCCCCCCCCC[P+](CCCCCC)(CCCCCC)CCCCCC [trihexyltetradecylphosphonium decanoate] + O
[2], x2 = 0.872
Conditions | mass density [kg/m3] | viscosity [mPa·s]
298.15 K | 901.2 | 90.95
303.15 K | 897.8 | 70.57
308.15 K | 894.5 | 55.66
313.15 K | 891.1 | 44.65
318.15 K | 887.7 | 36.26
323.15 K | 884.3 | 29.77
328.15 K | 880.9 | 24.65
333.15 K | 877.5 | 20.59
338.15 K | 874 | 17.35
343.15 K | 870.6 | 14.72
348.15 K | 867.1 | 12.57
353.15 K | 863.7 | 10.8
358.15 K | 860.2 | 9.345
363.15 K | 856.8 | 8.114

CC(CC(C)(C)C)CP(=O)([O-])CC(C)CC(C)(C)C.CCCCCCCCCCCCCC[P+](CCCCCC)(CCCCCC)CCCCCC
[1]
Conditions | mass density [kg/m3] | viscosity [mPa·s]
278.15 K | 897.3 | 5574.5
283.15 K | 894.3 | 3805.5
288.15 K | 891.3 | 2675.3
293.15 K | 888.3 | 1918.2
298.15 K | 885.3 | 1401.7
303.15 K | 882.3 | 1041.5
308.15 K | 879.3 | 785.77
313.15 K | 876.3 | 601.35
318.15 K | 873.4 | 466.24
323.15 K | 870.4 | 365.83
328.15 K | 867.5 | 290.28
333.15 K | 864.6 | 232.76
338.15 K | 861.7 | 188.43
343.15 K | 858.9 | 153.95
348.15 K | 856 | 126.77
353.15 K | 853.2 | 105.22
358.15 K | 850.3 | 87.92
363.15 K | 847.5 | 73.91

CCCCCCCCCCCCCC[P+](CCCCCC)(CCCCCC)CCCCCC.CS(=O)(=O)[O-] [trihexyltetradecylphosphonium methanesulfonate]
[1]
Conditions | mass density [kg/m3] | viscosity [mPa·s]
278.15 K | 940.5 | 7526.5
283.15 K | 937.4 | 4689.7
288.15 K | 934.3 | 3040.4
293.15 K | 931.2 | 2022.2
298.15 K | 928.1 | 1379.4
303.15 K | 925.1 | 962.83
308.15 K | 922 | 686.13
313.15 K | 918.9 | 498.53
318.15 K | 915.9 | 369.02
323.15 K | 912.9 | 277.77
328.15 K | 909.9 | 212.37
333.15 K | 907 | 164.79
338.15 K | 904.1 | 129.63
343.15 K | 901.2 | 103.34
348.15 K | 898.3 | 83.37
353.15 K | 895.3 | 68.01
358.15 K | 892.4 | 56.06
363.15 K | 889.4 | 46.65
